Assay results: patent publication US7595401B2, “Therapeutic compounds and their use in cancer” (Myriad Pharmaceuticals, Inc., priority 2006, dated 2009)

Each molecule was assayed on purified human Hsp90 (assay: Binding Assay: fluorescence polarization with BODIPY-labeled geldanamycin). Conditions: 5 μM compound, BODIPY-GM 10 nM, Hsp90 30 nM.
Experimental: Compound binding to purified Hsp90 was monitored using BODIPY-labeled geldanamycin (BODIPY-GM) in a fluorescence polarization assay adapted from Kim et al. (Journal of Biomolecular Screening 2004, 9(5):375-381). Compound dilutions (in 100% DMSO) were added to black-bottom 96-well plates (Greiner; 2% DMSO final), and equal volumes of BODIPY-GM (10 nM final) and purified human Hsp90 (Stressgen, SPP-770; 30 nM final) in assay buffer (20 mM HEPES-KOH pH 7.3, 50 mM KCl, 5 mM MgCl2, 20 mM Na2MoO4, 0.01% NP-40, 0.1 mg/mL bovine gamma globulin [Invitrogen, P2045], 2 mM DTT) were added sequentially to yield a final volume of 50 microliters. Plates were incubated overnight at room temperature. Parallel and perpendicular fluorescence measurements were read (LJL BioSystems Analyst AD plate reader) with excitation/emission wavelengths of 485/530 nm. Background fluorescence (buffer only) was subtracted, and fluorescence polarization (FP) values, expressed in mP units, were calculated from parallel and perpendicular fluorescence readings as follows: FP=(parallel−perpendicular)/(parallel+perpendicular)*1000
Percent inhibition was calculated by normalizing the FP values to those obtained in parallel reactions containing DMSO and subtracting these normalized values from 100%. Intrinsic compound fluorescence was independently monitored, and FP data points confounded by compound fluorescence were excluded from the analysis.
In the case of COc1ccc(OC)c(Sc2nc3c(N)ncnc3n2CCc2ccc(Br)cc2)c1 [Example 71, 9-[2-(4-Bromo-phenyl)-ethyl]-8-(2,5-dimethoxy-phenylsulfanyl)-9H-purin-6-ylamine], the “% Inhibition at 5 μM Compound Concentration” value (“% Inhibition” for short) is reported as 41%. For COc1ccc(OC)c(Sc2nc3c(N)ncn(CCN4CCN(C5CCCC5)CC4)c-3n2)c1 [Example 495, 3-[2-(4-Cyclopentylpiperazin-1-yl)ethyl]-8-[(2,5-dimethoxyphenyl)thio]-3 H-purin-6-amine], the “% Inhibition” value was 6%. In the case of Nc1ncn(CCc2ccccc2)c2nc(Sc3ccc(NC=O)c(O)c3)nc1-2 [Example 268, N-(4-{[6-Amino-3-(2-phenylethyl)-3H-purin-8-yl]thio}-2-hydroxyphenyl)formamide], the “% Inhibition” value is reported as 7.0%. For COc1c(F)cc(Sc2nc3c(N)ncn(CCC4CCN(C(C)=O)CC4)c-3n2)cc1Cl [Example 570, 3-[2-(1-Acetylpiperidin-4-yl)ethyl]-8-[(3-chloro-5-fluoro-4-methoxyphenyl)thio]-3 H-purin-6-amine], the “% Inhibition” value was 0.00%. CC(C)(C)OC(=O)N1CCCC(CCn2cnc(N)c3nc(Sc4cc5c(cc4Br)OCO5)nc2-3)C1 (centres unmarked) [Example 345, tert-Butyl 3-(2-{6-amino-8-[(6-bromo-1,3-benzodioxol-5-yl)thio]-3H-purin-3-yl}ethyl)piperidine-1-carboxylate] was tested, and the “% Inhibition” value was 3%. For CS(=O)(=O)N1CCC(CCn2cnc(N)c3nc(Sc4cc5c(cc4Br)OCO5)nc2-3)CC1 [Example 366, 8-[(6-Bromo-1,3-benzodioxol-5-yl)thio]-3-{2-[1-(methylsulfonyl)piperidin-4-yl]ethyl}-3H-purin-6-amine], the “% Inhibition” value was 20%. For COc1ccc(OC)c(Sc2nc3c(N)ncn(CCc4ccccc4F)c-3n2)c1 [Example 30, 8-(2,5-dimethoxy-phenylsulfanyl)-3-[2-(2-fluoro-phenyl)-ethyl]-3H-purin-6-ylamine], the “% Inhibition” value was 16%.

Same assay, conditions: BODIPY-GM 10 nM, Hsp90 30 nM
C[C@H](O)C(=O)N1CCC(CCn2c(Sc3cc4c(cc3Br)OCO4)nc3c(N)ncnc32)CC1 [Example 757, (2S)-1-[4-(2-{6-amino-8-[(6-bromo-1,3-benzodioxol-5-yl)thio]-9H-purin-9-yl}ethyl)piperidin-1-yl]-1-oxopropan-2-ol] was tested, and the IC50 was 205 nM. For COc1ccc(OC)c(Sc2nc3c(N)ncnc3n2CCc2ccc(Br)cc2)c1 [Example 71, 9-[2-(4-Bromo-phenyl)-ethyl]-8-(2,5-dimethoxy-phenylsulfanyl)-9H-purin-6-ylamine], the IC50 was over 25000 nM. Work on COc1ccc(OC)c(Sc2nc3c(N)ncnc3n2CCc2c(F)c(F)c(F)c(F)c2F)c1 [Example 218, 8-(2,5-Dimethoxy-phenylsulfanyl)-9-(2-pentafluorophenyl-ethyl)-9H-purin-6-ylamine] yielded an IC50 of over 3000 nM. Nc1ncn(CCCc2ccccc2)c2nc(Sc3cc4c(cc3Br)OCO4)nc1-2 [Example 44, 8-(6-bromo-benzo[1,3]dioxol-5-ylsulfanyl)-3-(3-phenyl-propyl)-3H-purin-6-ylamine] was tested, and the IC50 was 27000 nM. Work on CC(C)(C)OC(=O)NC(CCn1c(Sc2cc3c(cc2Br)OCO3)nc2c(N)ncnc21)C1CCC1 (centres unmarked) [Example 672, tert-Butyl(3-{6-amino-8-[(6-bromo-1,3-benzodioxol-5-yl)thio]-9H-purin-9-yl}-1-cyclobutylpropyl)carbamate] yielded an IC50 of 900 nM. Molecule CC(=O)N1CCC(CCn2c(Sc3nc(C)c(C)s3)nc3c(N)ncnc32)CC1 [Example 654, 9-[2-(1-Acetylpiperidin-4-yl)ethyl]-8-[(4,5-dimethyl-1,3-thiazol-2-yl)thio]-9H-purin-6-amine] has an IC50 of 2000 nM. Nc1ncnc2c1nc(Sc1cc3c(cc1Br)OCO3)n2CCC1CCCN1C(=O)OCc1ccccc1 (centres unmarked) [Example 419, Benzyl 2-(2-{6-amino-8-[(6-bromo-1,3-benzodioxol-5-yl)thio]-9H-purin-9-yl}ethyl)pyrrolidine-1-carboxylate] gave an IC50 of 2900 nM. CS(=O)(=O)NC(CCn1c(Sc2cc3c(cc2Br)OCO3)nc2c(N)ncnc21)C1CC1 (centres unmarked) [Example 674, N-(3-{6-Amino-8-[(6-bromo-1,3-benzodioxol-5-yl)thio]-9H-purin-9-yl}-1-cyclopropylpropyl)methanesulfonamide] was tested, and the IC50 was 80 nM. C[C@H](O)C(=O)N1CCC(CCn2c(Sc3ccc4c(c3)CCO4)nc3c(N)ncnc32)CC1 [Example 768, (2S)-1-(4-{2-[6-Amino-8-(2,3-dihydro-1-benzofuran-5-ylthio)-9H-purin-9-yl]ethyl}piperidin-1-yl)-1-oxopropan-2-ol] showed an IC50 of over 5000 nM. COc1ccc(OC)c(Sc2nc3c(N)ncnc3n2CCC2CCNCC2)c1 [Example 469, 8-[(2,5-Dimethoxyphenyl)thio]-9-(2-piperidin-4-ylethyl)-9 H-purin-6-amine] showed an IC50 of 8800 nM. For COc1ccc(OC)c(Sc2nc3c(N)ncn(CCc4cccc(F)c4)c-3n2)c1 [Example 38, 8-(2,5-dimethoxy-phenylsulfanyl)-3-[2-(3-fluoro-phenyl)-ethyl]-3H-purin-6-ylamine], the IC50 was over 10000 nM. For Nc1ncnc2c1nc(Sc1cc3c(cc1Br)OCO3)n2CCC1CCN(C(=O)[C@H]2C[C@@H]2F)CC1 [Example 522, 8-[(6-Bromo-1,3-benzodioxol-5-yl)thio]-9-[2-(1-{[(2S)-2-fluorocyclopropyl]carbonyl}piperidin-4-yl)ethyl]-9 H-purin-6-amine], the IC50 was 53 nM. For Nc1ncnc2c1nc(Sc1cc3c(cc1Br)OCO3)n2CCc1ccc2ccccc2c1 [Example 302, 8-[(6-Bromo-1,3-benzodioxol-5-yl)thio]-9-[2-(2-naphthyl)ethyl]-9H-purin-6-amine], the IC50 was over 25000 nM. CC(C)(C)OC(=O)N1CCCC(CCn2c(Sc3cc4c(cc3Br)OCO4)nc3c(N)ncnc32)C1 (centres unmarked) [Example 346, tert-Butyl 3-(2-{6-amino-8-[(6-bromo-1,3-benzodioxol-5-yl)thio]-9H-purin-9-yl}ethyl)piperidine-1-carboxylate] showed an IC50 of 325 nM. In the case of CC(C)(C)NS(=O)(=O)c1ccc(CCn2c(Sc3cc4c(cc3Br)OCO4)nc3c(N)ncnc32)cc1 [Example 273, 4-(2-{6-Amino-8-[(6-bromo-1,3-benzodioxol-5-yl)thio]-9H-purin-9-yl}ethyl)-N-(tert-butyl)benzenesulfonamide], the IC50 is reported as 1300 nM. COc1ccc(OC)c(Sc2nc3c(N)ncnc3n2CC(c2ccccc2)C(C)C)c1 (centres unmarked) [Example 113, 8-(2,5-Dimethoxy-phenylsulfanyl)-9-(3-methyl-2-phenyl-butyl)-9H-purin-6-ylamine] gave an IC50 of 550 nM. COc1ccc(OC)c(Sc2nc3c(N)ncnc3n2CCc2ccncc2)c1 [Example 134, 8-(2,5-Dimethoxy-phenylsulfanyl)-9-(2-pyridin-4-yl-ethyl)-9H-purin-6-ylamine] gave an IC50 of over 3000 nM. Work on COc1ccc(C#N)cc1Sc1nc2c(N)ncnc2n1CCc1ccccc1Cl [Example 306, 3-({6-Amino-9-[2-(2-chlorophenyl)ethyl]-9H-purin-8-yl}thio)-4-methoxybenzonitrile] yielded an IC50 of over 25000 nM. COc1ccc(OC)c(Sc2nc3c(N)ncnc3n2CCc2ccccc2O)c1 [Example 231, 2-(2-{6-Amino-8-[(2,5-dimethoxyphenyl)thio]-9H-purin-9-yl}ethyl)phenol] was tested, and the IC50 was over 25000 nM. Nc1ncnc2c1nc(Sc1cc3c(cc1Br)OCO3)n2CCc1c(F)cccc1Cl [Example 130, 8-(6-Bromo-benzo[1,3]dioxol-5-ylsulfanyl)-9-[2-(2-chloro-6-fluoro-phenyl)-ethyl]-9H-purin-6-ylamine] gave an IC50 of 40 nM. With C=Cn1c(Sc2cc3c(cc2Br)OCO3)nc2c(N)ncnc21 [Example 498, 8-(6-bromo-benzo[1,3]dioxol-5-ylsulfanyl)-9-vinyl-9H-6-ylamine] the IC50 was 525 nM. COc1ccc(OC)c(Sc2nc3c(N)ncn(CCc4ccccc4F)c-3n2)c1 [Example 30, 8-(2,5-dimethoxy-phenylsulfanyl)-3-[2-(2-fluoro-phenyl)-ethyl]-3H-purin-6-ylamine] showed an IC50 of over 10000 nM.
